# Reference: patent US20230066011A1, “PYRROLOPYRIMIDINE DERIVATIVE, AND PHARMACEUTICAL COMPOSITION FOR PREVENTING OR TREATING PROTEIN KINASE-RELATED DISEASE COMPRISING SAME AS ACTIVE INGREDIENT” (VORONOI CO., LTD., priority 2019, published 2023)
# Key:
# [1] = biological target: T1, TTK (Homo sapiens, UniProt P33981); assay: TTK enzyme inhibition, ADP-Glo kinase assay; type: biochemical; design: purchased SignalChem T20-10G; conditions: ATP 5 μM
# T1 sequence (P33981 1-857): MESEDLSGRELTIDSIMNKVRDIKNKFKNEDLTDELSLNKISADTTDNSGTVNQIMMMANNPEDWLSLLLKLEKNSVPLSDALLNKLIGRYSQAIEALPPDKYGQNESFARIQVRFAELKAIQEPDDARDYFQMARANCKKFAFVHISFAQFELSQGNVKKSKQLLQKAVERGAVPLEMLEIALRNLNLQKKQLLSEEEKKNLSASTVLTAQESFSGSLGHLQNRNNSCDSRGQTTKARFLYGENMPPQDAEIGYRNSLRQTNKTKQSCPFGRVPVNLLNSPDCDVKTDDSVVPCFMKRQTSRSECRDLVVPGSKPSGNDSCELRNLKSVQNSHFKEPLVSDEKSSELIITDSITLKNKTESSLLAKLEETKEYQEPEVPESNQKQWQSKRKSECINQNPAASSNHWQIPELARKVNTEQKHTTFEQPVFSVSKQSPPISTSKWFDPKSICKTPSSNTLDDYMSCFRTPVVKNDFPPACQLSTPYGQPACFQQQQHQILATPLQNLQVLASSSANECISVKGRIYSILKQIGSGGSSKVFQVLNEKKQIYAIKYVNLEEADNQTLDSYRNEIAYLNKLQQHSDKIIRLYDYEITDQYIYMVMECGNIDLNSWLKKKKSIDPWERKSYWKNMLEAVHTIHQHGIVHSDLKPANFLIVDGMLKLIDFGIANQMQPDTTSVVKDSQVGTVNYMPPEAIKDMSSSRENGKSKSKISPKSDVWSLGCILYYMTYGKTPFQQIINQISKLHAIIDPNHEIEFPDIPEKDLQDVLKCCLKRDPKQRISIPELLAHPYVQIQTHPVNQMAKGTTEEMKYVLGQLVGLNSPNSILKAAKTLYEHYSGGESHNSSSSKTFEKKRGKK
# Description: To evaluate an inhibitory activity of the compound according to the present invention against LRRK2, LRRK2 (G2019S), DYRK1, CLK1, and TTK kinases, experiments were performed as follows.
# Each of the Example compounds was reacted with a purified human TTK (SignalChem #T20-10G) enzyme to evaluate an ability to inhibit an enzyme using a method as described below. A composition of 40 mM Tris-HCl (pH 7.4), 20 mM MgCl2, 0.1 mg/mL BSA (a 5× kinase buffer, SignalChem #K03-09), and 50 μM DTT (SignalChem #D86-09B) was used as a reaction buffer, and all reactions of test substances were performed in the reaction buffer. Each of the compounds was diluted […] from a 10 mM DMSO stock using a serial dilution method, and enzyme activities were measured at final compound concentrations of 1, 0.333333, 0.111111, 0.037037, 0.012346, 0.004115, 0.001372, 0.000457, 0.000152, 0.000051, and 0.000017 μM. In the test, purified ATP (5 μM, Promega #V6930) and an MBP enzyme substrate (0.2 μg, SignalChem M42-51N) were reacted with a human TTK (7.5 ng) enzyme at 25° C. for 4 hours, and the enzyme activities were then determined using an in vitro ADP-Glo™ kinase assay (Promega #V6930). An enzyme-activity reaction solution, an ADP-Glo reaction solution, and an enzyme-ability detection solution were reacted at a ratio of 2:2:1 to measure a degree of inhibition of the enzyme activity with luminescence. The degree of inhibition of the enzyme activity according to the treatment concentration of each of the compounds was calculated based on the fluorescence of the enzyme activity of the solvent control which was not treated with the compound. In this case, the concentration of each of the compounds inhibiting 50% of the enzyme activity was determined to be an IC50 (nM) value, and calculated using Prism (Version 8.2 GraphPad) software.
# [2] = biological target: LRRK2 (G2019S) (Homo sapiens, UniProt Q5S007, G2019S); assay: Kinase HotSpot service (Reaction Biology Corporation), LRRK2 (G2019S); type: biochemical; design: purchased DiscoverX Corp. (ScanMAX Kinase analysis panel, service); conditions: ATP 10 uM, read-out: LRRK2 (G2019S) IC50 (values indicated by *)
# Sequence of LRRK2 (G2019S) (Q5S007 whole entry G2019S): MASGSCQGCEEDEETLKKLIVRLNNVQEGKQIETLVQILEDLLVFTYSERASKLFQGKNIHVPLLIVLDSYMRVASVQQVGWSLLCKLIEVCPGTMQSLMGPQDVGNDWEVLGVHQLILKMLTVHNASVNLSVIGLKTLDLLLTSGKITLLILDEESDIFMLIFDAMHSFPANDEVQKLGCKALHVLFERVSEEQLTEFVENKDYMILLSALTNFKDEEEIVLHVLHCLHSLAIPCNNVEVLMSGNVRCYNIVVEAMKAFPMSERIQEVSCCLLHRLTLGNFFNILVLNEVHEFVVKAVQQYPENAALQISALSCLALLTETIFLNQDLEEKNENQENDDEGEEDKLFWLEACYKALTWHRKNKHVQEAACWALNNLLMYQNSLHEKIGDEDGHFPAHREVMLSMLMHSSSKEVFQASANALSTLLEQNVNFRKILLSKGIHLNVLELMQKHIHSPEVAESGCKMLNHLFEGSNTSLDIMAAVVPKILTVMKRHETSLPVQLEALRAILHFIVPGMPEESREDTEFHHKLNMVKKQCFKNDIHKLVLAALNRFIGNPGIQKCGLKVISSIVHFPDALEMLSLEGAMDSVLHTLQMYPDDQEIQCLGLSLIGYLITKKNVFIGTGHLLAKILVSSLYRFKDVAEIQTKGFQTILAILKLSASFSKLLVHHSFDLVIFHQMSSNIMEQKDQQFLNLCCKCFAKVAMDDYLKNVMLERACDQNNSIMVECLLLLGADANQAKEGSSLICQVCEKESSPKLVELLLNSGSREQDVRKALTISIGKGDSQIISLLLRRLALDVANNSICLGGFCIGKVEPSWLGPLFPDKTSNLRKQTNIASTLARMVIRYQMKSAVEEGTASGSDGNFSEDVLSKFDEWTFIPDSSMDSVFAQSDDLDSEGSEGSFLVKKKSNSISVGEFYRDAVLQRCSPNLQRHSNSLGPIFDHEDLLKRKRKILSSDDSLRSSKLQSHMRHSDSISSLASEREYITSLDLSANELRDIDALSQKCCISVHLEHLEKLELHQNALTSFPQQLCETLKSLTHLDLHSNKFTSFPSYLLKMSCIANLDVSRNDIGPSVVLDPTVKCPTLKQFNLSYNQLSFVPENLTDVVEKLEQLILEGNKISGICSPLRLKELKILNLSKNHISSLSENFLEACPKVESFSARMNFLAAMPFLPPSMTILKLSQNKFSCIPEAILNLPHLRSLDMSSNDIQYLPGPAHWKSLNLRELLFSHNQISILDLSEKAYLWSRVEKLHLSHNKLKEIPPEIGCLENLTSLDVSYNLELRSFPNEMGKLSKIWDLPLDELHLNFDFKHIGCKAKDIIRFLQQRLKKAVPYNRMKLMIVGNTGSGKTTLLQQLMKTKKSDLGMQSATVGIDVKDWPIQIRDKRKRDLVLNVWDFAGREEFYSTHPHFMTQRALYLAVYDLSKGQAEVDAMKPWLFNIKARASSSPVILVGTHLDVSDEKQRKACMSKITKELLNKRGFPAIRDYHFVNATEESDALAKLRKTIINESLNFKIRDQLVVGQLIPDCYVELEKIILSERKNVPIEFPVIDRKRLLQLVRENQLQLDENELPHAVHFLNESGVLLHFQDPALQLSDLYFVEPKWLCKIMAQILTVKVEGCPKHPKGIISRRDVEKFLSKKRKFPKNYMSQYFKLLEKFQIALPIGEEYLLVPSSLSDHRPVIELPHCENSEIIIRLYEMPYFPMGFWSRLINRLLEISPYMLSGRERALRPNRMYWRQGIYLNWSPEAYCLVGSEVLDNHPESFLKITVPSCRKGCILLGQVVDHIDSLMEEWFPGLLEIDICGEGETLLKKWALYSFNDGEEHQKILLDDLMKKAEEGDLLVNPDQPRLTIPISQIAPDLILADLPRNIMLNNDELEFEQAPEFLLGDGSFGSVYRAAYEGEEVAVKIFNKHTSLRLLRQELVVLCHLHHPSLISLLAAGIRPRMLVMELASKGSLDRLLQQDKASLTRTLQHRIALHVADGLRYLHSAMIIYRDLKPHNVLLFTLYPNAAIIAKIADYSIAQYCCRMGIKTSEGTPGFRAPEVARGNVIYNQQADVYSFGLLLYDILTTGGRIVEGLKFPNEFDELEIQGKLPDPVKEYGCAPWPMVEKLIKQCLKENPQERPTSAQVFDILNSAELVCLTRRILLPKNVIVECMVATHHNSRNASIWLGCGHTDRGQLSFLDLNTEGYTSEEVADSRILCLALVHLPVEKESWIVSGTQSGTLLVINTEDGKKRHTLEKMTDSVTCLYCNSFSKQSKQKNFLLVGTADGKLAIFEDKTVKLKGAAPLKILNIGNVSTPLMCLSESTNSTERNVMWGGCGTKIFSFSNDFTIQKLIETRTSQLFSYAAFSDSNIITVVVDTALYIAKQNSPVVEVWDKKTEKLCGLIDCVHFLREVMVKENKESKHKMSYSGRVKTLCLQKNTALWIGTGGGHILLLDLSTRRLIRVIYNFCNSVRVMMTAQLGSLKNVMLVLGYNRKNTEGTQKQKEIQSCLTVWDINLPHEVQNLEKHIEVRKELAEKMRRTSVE
# Description: (§1) The inhibitory activities of the compounds were measured at a 3-fold concentration gradient starting from a maximum compound concentration of […], and the values measured using the Kinase HotSpot service (Reaction Biology Corporation) are indicated by an asterisk (*).
# (§2) All the experimental methods were performed as provided by the Kinase HotSpot Customer Protocol (http://www.reactionbiology.com//Kinase_Assay_Protocol).
# [3] = test system: MDA-MB-468 cell line; assay: Inhibition of proliferation of MDA-MB-468 cancer cells (Cell Titer-Glo); type: cell-based; conditions: Homo sapiens, MDA-MB-468, 72 hours
# Method in brief: (§3)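 A 72-hour treatment with compound (eleven final concentrations, 3-fold apart, top 10 μM) of cells seeded at 2,000 per well preceded a Cell Titer-Glo luminescence read, from which GI50 was obtained.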
# [4] = biological target: DYRK1 (Homo sapiens, UniProt Q13627); assay: Kinase HotSpot service (Reaction Biology Corporation), DYRK1; type: biochemical; conditions: ATP 10 uM, read-out: DYRK1 IC50 (values indicated by *)
# Description: as §1, §2
# [5] = test system: human DYRK1A and tau; assay: Inhibition of tau phosphorylation, ClariCELL Kinase Cell-Based Assay, HEK 293 cells expressing human DYRK1A and tau; conditions: for inhibition at 1 µM: HEK293, read-out: % inhibition at 1 uM, tau phosphorylation, compound 1 uM; for inhibition at 0.25 µM / inhibition at 0.5 µM: HEK293, tau phosphorylation; for inhibition at 0.25 µM: compound 0.25 uM; for inhibition at 0.5 µM: compound 0.5 uM
# Method in brief: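 Cell-based service assay: HEK 293 cells transiently expressing human DYRK1A and tau were treated with compound and lysed. Released tau was plate-captured and its phosphorylation quantified by ELISA with a phospho-tau-specific antibody.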
# [6] = biological target: LRRK2 (Homo sapiens, UniProt Q5S007); assay: Kinase HotSpot service (Reaction Biology Corporation), LRRK2; type: biochemical; design: purchased DiscoverX Corp. (ScanMAX Kinase analysis panel, service); conditions: ATP 10 uM, read-out: LRRK2 IC50 (values indicated by *)
# Sequence of LRRK2 (Q5S007 whole entry): as the sequence (Q5S007 whole entry G2019S) above, with S2019G counted along it
# Description: as §1, §2
# [7] = test system: MDA-MB-231 cell line; assay: Inhibition of proliferation of MDA-MB-231 cancer cells (Cell Titer-Glo); type: cell-based; conditions: Homo sapiens, 72 hours
# Method in brief: as §3
# [8] = biological target: T2, CLK1 (Homo sapiens, UniProt P49759); assay: Kinase HotSpot service (Reaction Biology Corporation), CLK1; type: biochemical; conditions: ATP 10 uM, read-out: CLK1 IC50 (values indicated by *)
# T2 construct: purchased DiscoverX Corp. (ScanMAX Kinase analysis panel, service)
# T2 sequence (P49759 whole entry): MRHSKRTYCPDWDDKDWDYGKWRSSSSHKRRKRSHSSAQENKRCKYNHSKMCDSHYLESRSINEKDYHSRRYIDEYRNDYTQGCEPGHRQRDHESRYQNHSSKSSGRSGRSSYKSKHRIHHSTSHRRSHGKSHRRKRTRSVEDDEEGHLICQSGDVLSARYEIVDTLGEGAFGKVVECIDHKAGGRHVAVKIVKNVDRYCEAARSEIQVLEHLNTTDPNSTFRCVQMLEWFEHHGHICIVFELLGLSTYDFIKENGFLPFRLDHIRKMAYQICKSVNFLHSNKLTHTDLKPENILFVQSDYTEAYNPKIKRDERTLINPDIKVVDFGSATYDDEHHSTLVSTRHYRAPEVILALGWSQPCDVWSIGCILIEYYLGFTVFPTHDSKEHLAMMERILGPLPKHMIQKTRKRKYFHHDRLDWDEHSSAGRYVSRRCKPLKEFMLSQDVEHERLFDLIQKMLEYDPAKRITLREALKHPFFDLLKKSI
# Description: as §1, §2
# [9] = test system: IL-6; assay: Inhibition of LPS-induced IL-6 secretion of THP-1 monocytes (ELISA); type: cell-based, human; conditions: Homo sapiens, THP-1; compound 0.5 μM, LPS 500 ng/mL, 24 hours; read-out: THP1/IL6 (% inhib)
# Description: To evaluate an inhibitory effect on cytokine secretion of monocytes, THP-1 cells (ATCC, #TIB-202) as a human-derived monocyte line were cultured in an RPMI-1640 (Hyclone, SH30027.01) medium supplemented with 10% fetal bovine serum (Hyclone, SH30084.03), 1% penicillin streptomycin (Welgene, LS202-02), and 50 μM 2-mercaptoethanol (Gibco, #21985023). In the test, the cells were seeded in a 48-well plate (SPL, #30048) at a density of 1.5 to 2×10^5 cells/250 μL per well, and cultured at 37° C. for 16 hours in a 5% CO2 incubator. Thereafter, the compound was diluted with DMSO so that the final concentration of the compound was 0.5 μM. Then, the cells were treated with the diluted compound before an hour of treatment with lipopolysaccharides (LPS) (Sigma, #L6529). After the treatment with the compound, the cells were treated with LPS so that the final concentration was 500 ng/mL. Then, a cell culture broth was collected after 24 hours of culture, and levels of cytokine IL-6 (R&D Systems, #D6050) and TNF-α (R&D Systems, #DTA00D) comprised in the culture broth were measured using respective ELISA kits. After an experiment was performed according to the manufacturer's guidelines, cell analysis was performed by measuring the optical density at 450 nm using a microplate reader.
IC50 [1] [nM],IC50 [2] [nM],GI50 [3] [nM],IC50 [4] [nM],IC50 [6] [nM],GI50 [7] [nM],IC50 [8] [nM],SMILES,inhibition at 1 µM [5] [%],inhibition at 0.25 µM [5] [%],inhibition at 0.5 µM [5] [%],inhibition at 0.5 µM [9] [%]
< 100,< 100,301 to 1000,< 100,< 100,301 to 1000,< 100,"COc1cc(S(=O)(=O)N2CCOCC2)ccc1Nc1nc(C2CC2)c2c(C(F)(F)F)c[nH]c2n1 [Example 225, 4-cyclopropyl-N-(2-methoxy-4-(morpholinosulfonyl)phenyl)-5-(trifluoromethyl)-7H-pyrrolo[2,3-d]pyrimidin-2-amine]",29.9,1,-2.5,–
101 to 300,< 100,301 to 1000,< 100,< 100,–,< 100,"O=C(c1ccc(Nc2nc(C3CC3)c3c(C(F)(F)F)c[nH]c3n2)c2c1OCCO2)N1CCOCC1 [Example 227, (8-((4-cyclopropyl-5-(trifluoromethyl)-7H-pyrrolo[2,3-d]pyrimidin-2-yl)amino)-2,3-dihydrobenzo[b][1,4]dioxin-5-yl)(morpholino)methanone]",32.7,7.4,22.8,–
< 100,–,301 to 1000,< 100,< 100,–,< 100,O=C(c1ccc(Nc2nc(C3CC3)c3c(C(F)(F)F)c[nH]c3n2)c2c1CCO2)N1CC[C@H](N2CCOCC2)C1 [Example 472],56.5,23.6,36.5,31.5
